Test results reported in ChEMBL document CHEMBL1201862, “PubChem BioAssay data set” (2004).
Activity calls are given as the source filed them.

Experiments:
[1] = Trypanosoma cruzi growth suppression in host cells – NIH3T3 host cells, beta-gal luminescence, confirmation (AID 2044); format: functional, cell-based;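 also: intracellular parasites grown in NIH/3T3 mouse fibroblasts as host cells; luminescent beta-galactosidase reporter signal from transgenic T. cruzi replicating inside host cells; inhibitors lower the luminescence signal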
[2] = NIH3T3 cell viability loss – ATP luminescence, mouse fibroblasts, counter-screen, dose response (AID 2010); format: functional, cell-based;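 also: cells exposed to compound for about 90 hours before reading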
[3] = HEK-293T cell viability reduction – luminescence, B-cell screen hits, cytotoxicity control for BCR NF-kB inhibitor project, dose response (AID 489021); format: functional, cell-based;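 also: HEK-293T cells carrying an NF-kB luciferase reporter; cells exposed to compound for about 14 hours before viability readout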
INS1 = assay: INS-1E survival protection against cytokine death – cell-based, luminescence, retest, dose response (AID 449756); format: functional; details: Rattus norvegicus;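 also: cell death triggered by IL-1 beta plus TNF-alpha plus IFN-gamma mixture; protective hits raise ATP signal compared with cytokine alone wells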
[4] = molecular target: T1, High affinity choline transporter 1 (Homo sapiens, UniProt Q9GZV3); assay: human choline transporter potentiators, potency – cell-based, 10-point CRC, membrane potential dye, dose response (AID 602376); format: functional
T1 sequence (Q9GZV3 whole entry): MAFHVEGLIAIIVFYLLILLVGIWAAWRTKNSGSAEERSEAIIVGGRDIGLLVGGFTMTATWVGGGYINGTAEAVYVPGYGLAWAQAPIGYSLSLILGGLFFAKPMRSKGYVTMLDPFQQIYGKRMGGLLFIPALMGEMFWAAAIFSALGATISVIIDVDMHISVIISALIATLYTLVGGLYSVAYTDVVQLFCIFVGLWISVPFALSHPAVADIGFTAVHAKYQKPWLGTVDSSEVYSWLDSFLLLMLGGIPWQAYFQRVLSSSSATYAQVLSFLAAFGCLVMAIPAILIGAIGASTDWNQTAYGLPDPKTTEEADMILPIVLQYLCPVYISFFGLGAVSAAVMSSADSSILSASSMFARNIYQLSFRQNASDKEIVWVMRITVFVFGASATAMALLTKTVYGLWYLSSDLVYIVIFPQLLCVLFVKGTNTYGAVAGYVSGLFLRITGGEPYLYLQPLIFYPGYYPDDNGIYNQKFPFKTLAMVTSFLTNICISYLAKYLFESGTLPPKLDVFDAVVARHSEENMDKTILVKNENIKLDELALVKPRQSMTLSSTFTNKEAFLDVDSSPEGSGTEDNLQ

[5] = molecular target: Benomyl/methotrexate resistance protein (Candida albicans, UniProt P28873); assay: Candida albicans Mdr1 pump inhibition curves – singleplex, Cherry Pick1 hits, dose response (AID 588608); format: functional
[6] = molecular target: Multidrug resistance protein CDR1 (Candida albicans, UniProt P43071); assay: inhibition of Nile Red efflux via Candida CDR1 – S. cerevisiae AD1-8u, singleplex, Cherry Pick1 hits, dose response (AID 588606); format: functional
[7] = molecular target: T2, Ubiquitin-conjugating enzyme E2 N (Homo sapiens, UniProt P61088); format: functional;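 also: Dose-response confirmation in a TR-FRET assay detecting UBC13-driven polyubiquitin chain formation, inhibition measured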
T2 sequence (P61088 whole entry): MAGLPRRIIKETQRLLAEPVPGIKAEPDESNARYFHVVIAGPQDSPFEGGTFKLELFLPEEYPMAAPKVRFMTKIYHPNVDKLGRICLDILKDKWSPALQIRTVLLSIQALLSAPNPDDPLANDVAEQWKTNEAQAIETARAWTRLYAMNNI

[8] = molecular target: 26S proteasome non-ATPase regulatory subunit 14 (Homo sapiens, UniProt O00487); assay: inhibition of proteasome subunit RPN11 – biochemical, fluorescence polarization, uHTS hits, confirmation (AID 602368); format: functional
[9] = molecular target: 72 kDa type IV collagenase (Homo sapiens, UniProt P08253); assay: Dose Response validation of uHTS RPN11 inhibitor hits using a MMP-2 Fluorescence assay.; format: functional
Prothrombin = Prothrombin (Bos taurus, UniProt P00735); assay: thrombin protease inhibitors – biochemical, fluorescence polarization, uHTS hits, dose response (AID 602369); format: functional
[10] = molecular target: Tyrosine-protein kinase Lck (Homo sapiens, UniProt P06239); format: functional;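 also: lck was assayed as one member of a kinase panel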
[11] = molecular target: Mast/stem cell growth factor receptor Kit (Homo sapiens, UniProt P10721); format: functional;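 also: KIT entry within a kinase panel assay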
[12] = molecular target: Tyrosine-protein kinase Lyn (Homo sapiens, UniProt P07948); format: functional;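 also: lyn as one member of a kinase panel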
[13] = molecular target: Tyrosine-protein kinase Blk (Homo sapiens, UniProt P51451); format: functional;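 also: obtained as one member of a kinome-wide kinase assay panel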
[14] = molecular target: Proto-oncogene tyrosine-protein kinase Src (Homo sapiens, UniProt P12931); format: functional;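 also: SRC entry within a kinome-wide kinase profiling panel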
[15] = molecular target: T3, Receptor-type tyrosine-protein kinase FLT3 (Homo sapiens, UniProt P36888); format: functional;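 also: FLT3 was tested as one member of a kinome-wide kinase panel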
T3 sequence (P36888 whole entry): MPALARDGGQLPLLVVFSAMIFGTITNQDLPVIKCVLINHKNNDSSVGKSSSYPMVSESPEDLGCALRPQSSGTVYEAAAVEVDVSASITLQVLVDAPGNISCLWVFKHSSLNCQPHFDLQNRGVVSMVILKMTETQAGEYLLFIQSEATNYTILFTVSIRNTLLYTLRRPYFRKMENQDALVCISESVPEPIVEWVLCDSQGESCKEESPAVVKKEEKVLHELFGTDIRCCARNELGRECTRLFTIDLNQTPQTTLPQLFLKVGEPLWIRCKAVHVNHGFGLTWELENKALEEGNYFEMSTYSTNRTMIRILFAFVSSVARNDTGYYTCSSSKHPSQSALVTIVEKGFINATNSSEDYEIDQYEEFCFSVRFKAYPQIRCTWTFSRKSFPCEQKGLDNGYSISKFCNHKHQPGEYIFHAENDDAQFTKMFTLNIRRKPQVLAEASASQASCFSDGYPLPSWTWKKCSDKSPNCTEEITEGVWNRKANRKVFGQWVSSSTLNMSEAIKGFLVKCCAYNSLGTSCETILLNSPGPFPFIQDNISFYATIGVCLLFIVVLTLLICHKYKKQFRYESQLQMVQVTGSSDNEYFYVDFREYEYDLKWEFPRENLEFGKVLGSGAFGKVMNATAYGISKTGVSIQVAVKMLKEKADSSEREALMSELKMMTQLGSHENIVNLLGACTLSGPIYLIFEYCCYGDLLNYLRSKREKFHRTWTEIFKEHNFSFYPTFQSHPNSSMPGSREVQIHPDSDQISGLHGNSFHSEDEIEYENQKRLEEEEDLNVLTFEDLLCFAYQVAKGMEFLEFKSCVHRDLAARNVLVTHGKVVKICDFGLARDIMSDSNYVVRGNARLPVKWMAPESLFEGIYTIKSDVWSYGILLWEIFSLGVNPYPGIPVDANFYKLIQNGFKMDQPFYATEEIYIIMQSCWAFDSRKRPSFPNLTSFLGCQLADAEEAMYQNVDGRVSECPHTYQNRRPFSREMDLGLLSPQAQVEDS

[16] = molecular target: Tyrosine-protein kinase ABL1 (Homo sapiens, UniProt P00519); format: functional
[17] = molecular target: Vascular endothelial growth factor receptor 2 (Homo sapiens, UniProt P35968); format: functional
[18] = molecular target: Vascular endothelial growth factor receptor 3 (Homo sapiens, UniProt P35916); format: functional;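 also: value from a kinome-wide profiling panel, with FLT4 as the panel member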
[19] = molecular target: Tyrosine-protein kinase Fyn (Homo sapiens, UniProt P06241); format: functional
[20] = molecular target: Vascular endothelial growth factor receptor 1 (Homo sapiens, UniProt P17948); format: functional;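 also: measured within a kinome-wide profiling panel, FLT1 as the panel member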
[21] = molecular target: Macrophage colony-stimulating factor 1 receptor (Homo sapiens, UniProt P07333); format: functional;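 also: value comes from the Navigating the Kinome screening panel, CSF1R member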
[22] = molecular target: Neuropeptides B/W receptor type 1 (Homo sapiens, UniProt P48145); assay: human NPBW1 receptor blockade, IC50 – cell-based, fluorescence, dose response, set 5, late-stage follow-up (AID 588566); format: functional
[23] = molecular target: Melanin-concentrating hormone receptor 1 (Homo sapiens, UniProt Q99705); assay: Late-stage fluorescence-based counterscreen for antagonists of the G-protein coupled receptor 7 (GPR7): cell-based dose response assay to identify antagonists of the melanin-concentrating hormone receptor 1 (MCHR1) Set 5.; format: functional
Vero = assay: inhibition of WNV-induced cytopathic effect – cell-based, CPE readout (AID 1621); format: functional; details: Chlorocebus sabaeus
[24] = molecular target: T4, Protein disulfide-isomerase (Homo sapiens, UniProt P07237); assay: inhibition of PDI-driven insulin aggregation – biochemical, turbidity, absorbance, cherry-picked samples, dose response (AID 602350); format: functional
[25] = loss of viability in HeLa cells – cell-based, ATP luminescence, dry powder, cytotoxicity control, dose response (AID 652117); format: functional
[26] = molecular target: T4, Protein disulfide-isomerase; assay: inhibition of PDI-mediated insulin reduction – biochemical, turbidity, dry powder samples, set 2, confirmation (AID 652146)

T4 sequence (P07237 whole entry): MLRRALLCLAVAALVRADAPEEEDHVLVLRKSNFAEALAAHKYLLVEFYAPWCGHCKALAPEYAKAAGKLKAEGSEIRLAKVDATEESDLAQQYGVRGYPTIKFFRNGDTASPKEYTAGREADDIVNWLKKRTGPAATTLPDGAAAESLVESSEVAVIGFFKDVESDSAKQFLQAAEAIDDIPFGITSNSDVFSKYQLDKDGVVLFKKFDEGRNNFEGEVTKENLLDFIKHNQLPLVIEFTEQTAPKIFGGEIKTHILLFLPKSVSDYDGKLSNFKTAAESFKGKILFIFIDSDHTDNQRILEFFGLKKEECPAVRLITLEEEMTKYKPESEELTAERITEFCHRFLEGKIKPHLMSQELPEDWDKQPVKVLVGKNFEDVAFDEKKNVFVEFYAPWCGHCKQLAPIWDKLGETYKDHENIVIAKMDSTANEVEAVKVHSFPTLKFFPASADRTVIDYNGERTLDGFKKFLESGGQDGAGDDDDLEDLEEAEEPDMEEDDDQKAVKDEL
Sequence of Mast/stem cell growth factor receptor Kit (P10721 whole entry): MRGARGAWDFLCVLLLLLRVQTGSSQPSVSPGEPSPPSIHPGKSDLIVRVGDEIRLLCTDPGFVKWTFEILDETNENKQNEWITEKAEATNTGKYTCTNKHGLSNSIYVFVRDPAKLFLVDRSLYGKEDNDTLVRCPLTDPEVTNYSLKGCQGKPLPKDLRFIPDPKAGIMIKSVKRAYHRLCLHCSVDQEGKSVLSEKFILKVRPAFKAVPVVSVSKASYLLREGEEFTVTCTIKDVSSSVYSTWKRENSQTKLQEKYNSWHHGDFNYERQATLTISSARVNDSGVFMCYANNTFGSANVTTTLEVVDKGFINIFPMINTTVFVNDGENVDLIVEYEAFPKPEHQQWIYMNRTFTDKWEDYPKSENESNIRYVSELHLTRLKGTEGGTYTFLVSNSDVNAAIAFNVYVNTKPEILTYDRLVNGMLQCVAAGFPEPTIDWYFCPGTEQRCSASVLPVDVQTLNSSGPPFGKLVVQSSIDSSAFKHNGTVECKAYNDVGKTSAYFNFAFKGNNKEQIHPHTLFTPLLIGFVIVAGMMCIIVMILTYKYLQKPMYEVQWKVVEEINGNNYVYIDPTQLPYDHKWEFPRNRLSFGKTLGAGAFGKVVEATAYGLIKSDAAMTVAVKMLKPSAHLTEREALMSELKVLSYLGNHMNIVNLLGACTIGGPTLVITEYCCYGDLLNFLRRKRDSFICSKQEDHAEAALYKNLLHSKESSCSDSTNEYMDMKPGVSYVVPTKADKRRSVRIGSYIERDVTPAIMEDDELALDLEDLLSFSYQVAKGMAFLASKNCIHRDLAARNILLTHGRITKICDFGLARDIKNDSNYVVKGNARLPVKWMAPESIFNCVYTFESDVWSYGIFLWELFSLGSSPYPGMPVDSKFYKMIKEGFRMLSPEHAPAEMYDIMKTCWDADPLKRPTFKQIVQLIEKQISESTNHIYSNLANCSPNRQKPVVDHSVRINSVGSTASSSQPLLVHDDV
Sequence of Tyrosine-protein kinase Fyn (P06241 whole entry): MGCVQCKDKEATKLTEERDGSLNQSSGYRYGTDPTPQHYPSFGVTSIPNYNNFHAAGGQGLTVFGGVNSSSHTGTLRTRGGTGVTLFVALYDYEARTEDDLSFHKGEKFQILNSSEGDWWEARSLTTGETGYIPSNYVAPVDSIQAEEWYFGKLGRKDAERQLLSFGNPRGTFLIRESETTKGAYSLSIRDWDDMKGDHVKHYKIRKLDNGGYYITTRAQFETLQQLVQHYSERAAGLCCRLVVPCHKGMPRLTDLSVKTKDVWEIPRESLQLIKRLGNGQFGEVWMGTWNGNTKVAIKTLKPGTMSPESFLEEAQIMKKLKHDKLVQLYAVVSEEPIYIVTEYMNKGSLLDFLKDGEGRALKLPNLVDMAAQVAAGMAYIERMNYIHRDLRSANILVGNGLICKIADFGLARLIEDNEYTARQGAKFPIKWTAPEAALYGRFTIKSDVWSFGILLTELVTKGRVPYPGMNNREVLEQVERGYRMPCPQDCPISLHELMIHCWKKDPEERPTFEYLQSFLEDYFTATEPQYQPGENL
Sequence of Tyrosine-protein kinase Blk (P51451 whole entry): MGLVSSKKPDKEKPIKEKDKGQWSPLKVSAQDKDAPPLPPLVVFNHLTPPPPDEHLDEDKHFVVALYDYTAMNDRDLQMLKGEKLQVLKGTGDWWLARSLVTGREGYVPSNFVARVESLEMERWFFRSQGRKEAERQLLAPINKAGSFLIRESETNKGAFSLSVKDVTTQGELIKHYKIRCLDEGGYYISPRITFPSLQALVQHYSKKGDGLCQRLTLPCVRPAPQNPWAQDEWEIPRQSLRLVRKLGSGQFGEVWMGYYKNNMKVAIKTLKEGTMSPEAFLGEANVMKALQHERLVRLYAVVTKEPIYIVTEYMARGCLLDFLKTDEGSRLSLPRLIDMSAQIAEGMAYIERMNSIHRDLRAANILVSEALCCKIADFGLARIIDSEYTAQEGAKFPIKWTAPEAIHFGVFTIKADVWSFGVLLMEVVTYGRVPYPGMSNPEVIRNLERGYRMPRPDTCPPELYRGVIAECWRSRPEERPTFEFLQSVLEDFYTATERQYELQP
Sequence of Vascular endothelial growth factor receptor 3 (P35916 whole entry): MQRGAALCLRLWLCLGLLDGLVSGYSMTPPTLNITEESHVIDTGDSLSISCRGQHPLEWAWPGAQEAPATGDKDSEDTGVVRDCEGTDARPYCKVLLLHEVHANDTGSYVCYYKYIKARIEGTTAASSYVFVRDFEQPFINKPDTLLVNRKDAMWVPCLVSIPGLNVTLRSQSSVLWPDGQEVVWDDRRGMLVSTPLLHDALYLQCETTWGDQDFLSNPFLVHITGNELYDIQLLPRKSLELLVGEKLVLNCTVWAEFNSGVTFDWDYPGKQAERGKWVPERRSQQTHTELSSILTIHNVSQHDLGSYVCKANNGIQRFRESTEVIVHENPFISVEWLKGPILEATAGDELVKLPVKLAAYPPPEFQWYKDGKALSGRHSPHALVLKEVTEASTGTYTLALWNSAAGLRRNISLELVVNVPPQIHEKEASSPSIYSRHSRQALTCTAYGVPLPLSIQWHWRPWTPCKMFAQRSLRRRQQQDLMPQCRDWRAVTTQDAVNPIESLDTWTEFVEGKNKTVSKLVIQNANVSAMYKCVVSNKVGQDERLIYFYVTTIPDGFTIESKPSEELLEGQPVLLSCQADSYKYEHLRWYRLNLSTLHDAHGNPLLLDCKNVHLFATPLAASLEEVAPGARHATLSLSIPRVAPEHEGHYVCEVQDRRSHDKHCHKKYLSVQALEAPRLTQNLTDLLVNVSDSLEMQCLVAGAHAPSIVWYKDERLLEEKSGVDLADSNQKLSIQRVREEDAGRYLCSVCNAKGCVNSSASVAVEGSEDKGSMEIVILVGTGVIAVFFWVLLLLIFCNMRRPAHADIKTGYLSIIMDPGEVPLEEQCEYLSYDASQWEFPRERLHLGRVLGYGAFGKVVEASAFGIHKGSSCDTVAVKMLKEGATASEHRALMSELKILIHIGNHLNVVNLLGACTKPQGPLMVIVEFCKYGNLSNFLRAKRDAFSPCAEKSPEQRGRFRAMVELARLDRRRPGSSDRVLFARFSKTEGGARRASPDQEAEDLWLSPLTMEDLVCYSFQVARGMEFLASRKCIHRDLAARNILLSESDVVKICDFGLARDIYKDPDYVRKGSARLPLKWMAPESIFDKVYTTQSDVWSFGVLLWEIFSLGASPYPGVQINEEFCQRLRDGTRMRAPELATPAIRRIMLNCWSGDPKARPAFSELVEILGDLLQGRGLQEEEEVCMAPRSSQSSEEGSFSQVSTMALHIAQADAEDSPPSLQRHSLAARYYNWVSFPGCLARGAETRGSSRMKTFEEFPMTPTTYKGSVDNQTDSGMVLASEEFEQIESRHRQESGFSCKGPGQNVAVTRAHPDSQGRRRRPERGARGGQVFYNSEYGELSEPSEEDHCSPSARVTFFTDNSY
Sequence of Tyrosine-protein kinase ABL1 (P00519 whole entry): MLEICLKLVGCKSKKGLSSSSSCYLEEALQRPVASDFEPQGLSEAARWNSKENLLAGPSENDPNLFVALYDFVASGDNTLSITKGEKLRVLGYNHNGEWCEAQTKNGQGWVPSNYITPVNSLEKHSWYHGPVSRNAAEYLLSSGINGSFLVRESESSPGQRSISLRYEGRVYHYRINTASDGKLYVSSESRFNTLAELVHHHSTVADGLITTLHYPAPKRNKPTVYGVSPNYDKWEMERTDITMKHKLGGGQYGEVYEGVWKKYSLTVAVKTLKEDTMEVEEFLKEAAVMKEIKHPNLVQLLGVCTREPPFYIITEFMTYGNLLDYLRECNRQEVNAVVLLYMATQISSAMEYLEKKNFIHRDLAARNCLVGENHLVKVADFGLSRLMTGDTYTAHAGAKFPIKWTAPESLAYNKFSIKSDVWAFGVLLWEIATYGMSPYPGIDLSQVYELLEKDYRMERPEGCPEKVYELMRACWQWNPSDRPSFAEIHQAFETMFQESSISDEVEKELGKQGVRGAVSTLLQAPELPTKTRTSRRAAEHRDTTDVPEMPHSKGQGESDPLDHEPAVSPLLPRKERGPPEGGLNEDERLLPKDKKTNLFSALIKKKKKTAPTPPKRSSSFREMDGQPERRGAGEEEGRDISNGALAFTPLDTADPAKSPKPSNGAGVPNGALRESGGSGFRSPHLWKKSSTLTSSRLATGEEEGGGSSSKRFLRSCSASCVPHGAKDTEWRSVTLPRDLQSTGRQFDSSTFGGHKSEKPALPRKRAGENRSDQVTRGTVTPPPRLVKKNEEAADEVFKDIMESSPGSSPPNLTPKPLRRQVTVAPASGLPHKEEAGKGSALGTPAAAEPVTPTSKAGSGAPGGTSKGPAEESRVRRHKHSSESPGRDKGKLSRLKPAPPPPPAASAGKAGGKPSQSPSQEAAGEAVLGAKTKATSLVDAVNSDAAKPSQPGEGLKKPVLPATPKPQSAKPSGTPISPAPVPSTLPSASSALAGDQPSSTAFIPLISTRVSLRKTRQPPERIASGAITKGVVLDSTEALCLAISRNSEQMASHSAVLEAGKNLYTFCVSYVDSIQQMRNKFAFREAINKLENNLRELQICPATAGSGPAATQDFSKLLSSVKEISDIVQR

In the case of `CCOc1ccc(-c2cn3c([n+]2-c2ccccc2)CCCCC3)cc1`, the EC50 [1] is reported as 463 nM (active), the EC50 [2] is reported as 15100 nM (active) and the IC50 [3] is reported as > 80000 nM (inactive). For the same compound, the AC50 (INS1) was 998 nM (active) and the EC50 [4] was 6830 nM (active).

With `CC(C)C(=O)N1CCC2(CC1)Oc1ccc(F)cc1C(=O)C21CC(c2ccc(Cl)cc2)=NO1` (centres undefined) the EC50 [5] was 31700 nM (active) and the EC50 [6] was 12600 nM (active).

For `CC(=O)n1cc([C@H]2C=C(C(=O)Nc3ccccc3)O[C@@H](OCc3ccc(CO)cc3)C2)c2ccccc21`, the IC50 [7] was > 20000 nM (inactive), the IC50 [8] was 65600 nM (active) and the IC50 [9] was > 100000 nM (inactive). The IC50 (Prothrombin) was 80600 nM (active).

In the case of `COc1ccc(-c2ccc(NC(=O)Nc3ccc(OC(F)(F)F)cc3)cc2)c2c(N)noc12`, the Ki [10] is reported as 31.6 nM (active), the Ki [11] is reported as 1.58 nM (active) and the Ki [12] is reported as 63.1 nM (active). The Ki [13] was 15.8 nM (active), the Ki [14] was 126 nM (active) and the Ki [15] was 1.26 nM (active). For the same compound, the Ki [16] was 200 nM (active), the Ki [17] was 1 nM (active) and the Ki [18] was 12.6 nM (active). The Ki [19] was 79.4 nM (active), the Ki [20] was 0.631 nM (active) and the Ki [21] was 5.01 nM (active).

In the case of `COc1ccc(Oc2c(F)cnn(-c3cccc(C)c3)c2=O)cc1`, the IC50 [22] is reported as 4040 nM (active) and the IC50 [23] is reported as 7640 nM (active).

In the case of `CCOC(=O)c1c(CN2CCN(CCO)CC2)n(-c2ccccc2)c2cc(Br)c(O)cc12`, the IC50 (Vero) is reported as 20200 nM (active), the AC50 [24] is reported as 610 nM (active) and the AC50 [25] is reported as > 52000 nM (inactive). The AC50 [26] was 2000 nM (active).
